Article PMC6894747 (PLoS Pathogens, 2019)
Positions of bridges follow the written chain, without caps; N, C: chain ends. Residues, ends and D or L forms follow the SMILES beside them.

What was measured:
[1] = system: HIV-1 clinical strains; format: cell-based; settings: 8 clinical strains
Experimental: (§1) Briefly, 1×10^5/mL MT-2 or M7 cells were infected with different HIV-1 viruses at 100 TCID50 (50% tissue culture infective dose) in the presence or absence of peptides at graded concentrations overnight. Then the culture supernatants were replaced with equal volume of fresh medium. On the fourth day post-infection, supernatants were collected and mixed with equal volume of 5% Triton X-100. […] The IC50 values were calculated with CalcuSyn software [35–36], and inhibition curves of best fit were generated with GraphPad Prism.

[2] = system: T20-resistant strains; test: Inhibition of T20-resistant HIV-1 variants, average; format: cell-based; settings: comparison with CP24
Experimental: as §1

SMILES: CC[C@H](C)[C@H](NC(=O)[C@H](CC(C)C)NC(=O)[C@H](CCC(=O)O)NC(=O)[C@H](CCC(=O)O)NC(=O)[C@@H](NC(=O)[C@H](CCCCN)NC(=O)[C@H](CCCCN)NC(=O)[C@@H](NC(=O)[C@H](Cc1ccc(O)cc1)NC(=O)[C@H](CCC(=O)O)NC(=O)[C@H](CCC(=O)O)NC(=O)[C@@H](NC(=O)[C@H](CCCCN)NC(=O)[C@H](CCCCN)NC(=O)[C@H](CC(=O)O)NC(=O)[C@H](Cc1c[nH]c2ccccc12)NC(=O)[C@H](CCC(=O)O)NC(=O)[C@H](CCC(=O)O)NC(=O)[C@H](Cc1c[nH]c2ccccc12)NC(=O)[C@@H](NC(=O)[C@H](CCSC)NC(=O)[C@@H](NC(=O)[C@@H]1CSSC[C@H](NC(=O)[C@@H](N)CC(=O)O)C(=O)N[C@@H](C)C(=O)N[C@@H](Cc2c[nH]c3ccccc23)C(=O)N[C@@H](Cc2c[nH]cn2)C(=O)N[C@@H](CC(C)C)C(=O)NCC(=O)N[C@@H](CCC(=O)O)C(=O)N[C@@H](CC(C)C)C(=O)N[C@@H](C(C)C)C(=O)N[C@@H](Cc2c[nH]c3ccccc23)C(=O)N1)[C@@H](C)O)[C@@H](C)O)[C@@H](C)CC)[C@@H](C)O)[C@@H](C)CC)C(=O)N[C@@H](CCCCN)C(=O)N[C@@H](CCCCN)C(=O)N[C@@H](CO)C(=O)O [IBP-CP24] (H-DCAWHLGELVWCTMTWEEWDKKIEEYTKKIEELIKKS-OH; disulfide 2-12; N-terminus and C-terminus assumed)
- average IC50 fold of that of CP24, clinical strains ([1]; comparison with CP24): ~1.1 fold
- average IC50 fold of that of T20, clinical strains ([1]; comparison with T20): about 2.5 fold
- average IC50 fold of that of CP24, T20-resistant strains [2]: about 1.5 fold
